Consider 1 compound from patent publication US10487078B2, “Compositions and methods of targeting mutant K-RAS” (NantBio, Inc., priority 2015, dated 2019).

Common to all, as to type: cell-based
Test [1] deals with pMEK and pErk in Panc10.05 (K-Ras G12D mutant) cells. In words: SDS-PAGE/blot detection of pMEK and pErk (FIG. 3). To be noted: serum-starved, 3.1 to 25 μM, 1 hour, then 100 ng/ml EGF 5 minutes. How it is done: The effect of contemplated compounds on cell signaling was tested in wild type and K-ras G12D mutant cells as follows: Cancer cell lines BxPC-3 (K-Ras wild-type), and Panc10.05 (K-Ras G12D mutant) were serum-starved 0/N before treatment with 3.1 to 25 μM of Ras compound A0837 for 1 hour before stimulation with 100 ng/ml EGF for 5 minutes. Cells were washed once in ice-cold PBS, lysed in complete lysis buffer on ice, and processed by SDS-PAGE under reducing conditions for the detection of pMEK and pErk. Membranes were stripped and re-probed for total MEK/Erk.

A further test concerns Panc10.05 (G12D) cells. In words: 72 hr cell viability (CellTiterBlue). The conditions noted are these: GI50, 72 hr. As for the experimental part: (§1) Viability assays were performed on exemplary compounds and Table 2 below lists exemplary results for selected compounds tested on wild type (Ishikawa) and various K-ras mutants (Panc1-G12D; Panc10.05-G12D; HCT116-G13D).
(§2) Cells are counted and seeded at 1000 cells/36 ul medium/well into 384-well microplates. Cells are returned to 37° C. CO2 incubator for 18 hr. Drug is made as 200× in DMSO and diluted into medium to 10×. To each well is added 4 ul 10× drug, and plates are returned to the incubator. Final assay DMSO concentration is 0.5%. After 72 hr, 8 ul CellTiterBlue (Promega) is added to each well. After 3 hr, fluorescence (Ex550/Em590) is determined on the Victor Plate Reader (Perkin Elmer). Assay range is determined by DMSO control (100% viability) and 100 uM tamoxifen (0% viability). GI50 values are calculated using Graphpad Prism.

A further test deals with Panc1 (G12D) cells. Briefly: 72 hr cell viability (CellTiterBlue). The conditions noted are these: GI50, 72 hr. How it is done: as §1, §2
(In general: Alamar Blue is a resazurin reagent that responds to reducing activity.)

The target in the next test is K-ras G12D (Homo sapiens, UniProt P01116, G12D). Briefly: G-LISA Ras activation assay, 293H cells transfected with G12D mutant. The conditions noted are these: for IC50: 1 hour treatment. The method, boiled down: (§3)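 293H cells transfected with WT, G12D or G12V K-Ras plasmid, next day exposed to 3.125–50 μM compound for 1 h. WT-transfected cells then stimulated with 100 ng/ml EGF for 2 min. Cells lysed on ice; active Ras measured by G-LISA.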

The target in the next test is K-Ras wild-type (Homo sapiens, UniProt P01116). Briefly: G-LISA Ras activation assay, 293H cells transfected with Ras wild-type, EGF-stimulated. To be noted: 1 hour treatment, 100 ng/ml EGF. In short, it runs like this:
as §3

Test [2] deals with Ras in BxPC-3 (K-Ras wild-type), Panc10.05 (K-Ras G12D mutant), Capan-2 (K-Ras G12V) cells. Briefly: G-LISA Ras inhibition in cancer cell lines (FIG. 2). To be noted: 3.1 to 25 μM, 1 hour, then 100 ng/ml EGF 2 minutes. As for the experimental part:
To verify the results in specific cancer cell lines, cancer cell lines BxPC-3 (K-Ras wild-type), Panc10.05 (K-Ras G12D mutant), and Capan-2 (K-Ras G12V) were treated with 3.1 to 25 μM of Ras compound A0837 for 1 hour before stimulation with 100 ng/ml EGF for 2 minutes. Cells were washed once in ice-cold PBS, lysed in complete lysis buffer on ice, and processed by G-LISA according to Cytoskeleton protocol.

In test [3] the test system is Erk phosphorylation in Panc10.05 (G12D) cells. Briefly: In-Cell Western Erk phosphorylation. The conditions noted are these: EC50, one hour treatment; read-out: In-Cell Western Erk phosporylation Panc10.05 (G12D). As for the experimental part: (§4) In-cell phosphorylation assays for Erk and Akt were performed on various of the compounds and exemplary results are shown in Table 3 below using […] and Panc10.05 cell lines for G12D K-ras mutants.
(§5) Cells are seeded in complete medium into black sided, clear-bottom 384-well microplates at 3000 cells/[…]/well. Plates are returned to 37° C. CO2 incubator for 18 hr. Drug is made as 200× in DMSO and diluted into medium to 10×. To each well is added 4 ul 10× test article or controls, and plates are returned to the incubator. Final assay DMSO concentration is 0.5%. After one hour, cells are fixed in formaldehyde, rinsed & permeabilized with triton X-100, and blocked with BSA/Goat serum blocking solution. Primary phospho-Akt and phospho-ERK antibodies are added and plates are incubated overnight at 4° C. Plates are rinsed with Tween-20 wash buffer and secondary antibody (Goat anti-rabbit, Thermofisher) is added. After 2 hours, plates are rinsed in Tween-20 wash buffer, and then PBS. Plates are imaged on the Celigo (Nexcelom) and cellular fluorescence is quantitated. Full inhibition of phospho-Akt is achieved with 1 uM BEZ235 (Sellekchem), while full inhibition of phospho-ERK is achieved with 1 uM MEK Inhibitor II Calbiochem). EC50 values are calculated using Graphpad Prism.

The test system of test [4] is Erk phosphorylation in Panc1 (G12D) cells. In words: In-Cell Western Erk phosphorylation. To be noted: EC50, one hour treatment; read-out: In-Cell Western Erk phosporylation Panc1 (G12D). As for the experimental part: as §4, §5

Structures are written as SMILES. Where two headings read alike, the source gives them in different places.

Sequence of K-ras G12D (P01116 1-188 isoform P01116-2 G12D): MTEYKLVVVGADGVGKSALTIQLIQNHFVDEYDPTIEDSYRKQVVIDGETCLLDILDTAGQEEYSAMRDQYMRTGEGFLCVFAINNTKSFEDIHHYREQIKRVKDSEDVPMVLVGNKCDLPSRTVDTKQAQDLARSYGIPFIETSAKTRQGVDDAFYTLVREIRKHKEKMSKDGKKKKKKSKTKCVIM
Sequence of K-Ras wild-type (P01116 1-188 isoform P01116-2): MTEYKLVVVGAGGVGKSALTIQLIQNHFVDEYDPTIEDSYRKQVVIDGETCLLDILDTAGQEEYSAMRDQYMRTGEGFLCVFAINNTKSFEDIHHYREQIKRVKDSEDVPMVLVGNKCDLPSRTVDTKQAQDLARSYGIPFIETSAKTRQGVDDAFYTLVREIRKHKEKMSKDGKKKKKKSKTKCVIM

For `Cc1nc(C)c(C(=O)Nc2nc(-c3ccc4[nH]c(=O)[nH]c4c3)cs2)s1` [Compound 4562], the “Signaling downstream of Ras (pMEK, pErk), mutant cell line (FIG. 3)” value in test [1] is “inhibited signaling downstream of Ras in the mutant cell line”. The IC50 is 2000 nM with Panc10.05 (G12D) cells; 6 µM in the test on Panc1 (G12D) cells; 10 µM at K-ras G12D (Table 1, G-LISA, 293H transfected, read-out: IC50 (μM) G12D); 7 to 13 µM on K-ras G12D (Table 5, IC50, 293H transfected, read-out: G-LISA (G12D)); 0.5 µM on K-Ras wild-type (Table 1, G-LISA, 293H transfected, read-out: IC50 (μM) Wild-type); 0.5 µM on K-Ras wild-type (Table 5, IC50, 293H transfected, read-out: G-LISA (wild type)). The “In-cell selectivity among K-ras forms, G-LISA (FIG. 1)” value on K-ras G12D (293H transfected with wild-type, G12C, G12D or G12V, 3.125-50 μM, 1 hour) is listed as “pronounced selectivity towards the G12D mutant form”. The “IC50 for G12D compared to the wild type, G-LISA (FIG. 1)” value on K-ras G12D (293H transfected, 3.125-50 μM, 1 hour) is listed as “lower IC50 as compared to the wild type”. Also, in test [2], the “Selectivity of Ras inhibition in cancer cell lines, G-LISA (FIG. 2)” value is on record as “clear selectivity towards K-ras mutant G12D”. Further, the EC50 in test [3] was 4 µM; in test [4] it was 5 µM.
